Several values for one entry are separate records, joined by “and”; a condition that tells them apart may be missing. Equal values may be shown once. Ends that are not written are not given here.
Experiments:
E. coli = assay: Kill curve analysis; assay type: cell-based; conditions: 33 mg/L purified peptide, 2×10^5 cfu ml^−1, 37°C for 1 hour
Method: (§1) Using purified peptide in each case, 10 mM sodium phosphate buffer washed C. sakazakii, E. coli and Salmonella strains were diluted to a final concentration of 2×10^5 cfu ml^−1 and were exposed to nisin A, S29G and S29A at a concentration of 33 mg/L. Following incubation at 37°C for 1 hour, bacterial growth was monitored through plate counts.

S. mitis UCC5000 = assay: Broth MIC, Gram positive; assay type: cell-based, Streptococcus mitis; conditions: broth microtitre, BSA pre-treated plates, 10^5 cfu ml^−1, 2-fold dilutions from 10 µM, 16 h 37°C, purified peptide, mean of triplicate assays
Method: (§2) Minimum inhibitory concentration determinations for Gram positive organisms were carried out in triplicate in microtitre plates (Sarstedt). 96 well microtitre plates were pre-treated with bovine serum albumin (BSA) prior to addition of the peptides. Briefly, to each well of the microtitre plate 200 µL of phosphate buffered saline (PBS) containing 1% (w/v) bovine serum albumin (PBS/BSA) was added and incubated at 37°C for 30 min. The wells were washed with 200 µL PBS and allowed to dry. Target strains were grown overnight in the appropriate conditions and medium, subcultured into fresh broth and allowed to grow to an OD600 of ∼0.5, diluted to a final concentration of 10^5 cfu ml^−1 in a volume of 0.2 ml. Wild type nisin and nisin mutant peptides were adjusted to a 10 µM (S. mitis, B. cereus), 7.5 µM (L. monocytogenes), 5 µM (hVISA) 2.5 µM (MRSA, E. durans), or 500 nM (L. lactis strains) starting concentration and 2-fold serial dilutions of each peptide were added to the target strain.

Lactococcus lactis HP = assay: Agarose-based assay of cell-free supernatants of S29X producing strains
How it was run: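 Deferred antagonism in 1% agarose underlay (10 mM sodium phosphate, pH 7.4) seeded with mid-log indicator bacteria at 2×10^7 CFU/mL. Cell-free supernatant or purified peptide placed in 4.6 mm wells, held 3 h at 30 °C (L. lactis), 37 °C (Gram-positives) or RT (Gram-negatives). Plates were then overlaid with GM17 or LB agarose and incubated overnight.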

S. typhimurium UK-1 = assay: Kill curve analysis; assay type: cell-based, Salmonella enterica serovar Typhimurium; conditions: 33 mg/L purified peptide, 2×10^5 cfu ml^−1, 37°C for 1 hour
Method: as §1

B. cereus DPC 6089 = assay: Broth MIC, Gram positive; assay type: cell-based, Bacillus cereus; conditions: broth microtitre, BSA pre-treated plates, 10^5 cfu ml^−1, 2-fold dilutions from 10 µM, 16 h 37°C, purified peptide, mean of triplicate assays
Method: as §2

B. cereus DPC 6088 = assay: Broth MIC, Gram positive; assay type: cell-based, Bacillus cereus; conditions: broth microtitre, BSA pre-treated plates, 10^5 cfu ml^−1, 2-fold dilutions from 10 µM, 16 h 37°C, purified peptide, mean of triplicate assays
Method: as §2

C. sakazakii DPC 6440 [1] = assay: Kill curve analysis; assay type: cell-based, Cronobacter sakazakii; conditions: 33 mg/L purified peptide, 2×10^5 cfu ml^−1, 37°C for 1 hour
Method: as §1

[2] = test system: Salmonella enterica serovar Typhimurium UK1; assay: Broth MIC, Gram negative; assay type: cell-based; conditions: cells washed in 10 mM SPB pH 7.4, 2×10^5 CFU/mL, 2 h RT with peptide, then double strength LB, RT overnight, mean of triplicate assays
Method: (§3) Minimum inhibitory concentration determinations for Gram negative strains were carried out in triplicate in 96 well microtitre plates. Briefly, bacteria (E. coli, C. sakazakii and Salmonella) grown to mid-logarithmic phase were harvested by centrifugation, washed with 10 mM SPB at pH 7.4, and diluted to 2×10^5 colony-forming units (CFU)/mL in SPB. Nisin and nisin derivative peptides were resuspended in sterile HPLC water and 50 µL aliquots were added to wells containing 50 µL of 2×10^5 CFU of bacteria. Plates were incubated at RT for two hours with agitation. Double strength Luria–Bertani (LB) broth (100 µL) was added and the plates were incubated at RT overnight, the MIC was taken as the lowest concentration at which growth was inhibited.

E. coli 0157-H7 = assay: Broth MIC, Gram negative; assay type: cell-based; conditions: cells washed in 10 mM SPB pH 7.4, 2×10^5 CFU/mL, 2 h RT with peptide, then double strength LB, RT overnight, mean of triplicate assays
Method: as §3

C. sakazakii DPC 6440 [3] = assay: Agarose gel diffusion assay, peptide alone or with polymyxin B nonapeptide (PMBN); assay type: cell-based, Cronobacter sakazakii
Method: Agarose-based deferred antagonism assays were carried out as follows: GM17/LB (0.03%) underlay was prepared with 10 mM sodium phosphate buffer (SPB) at pH 7.4 to which was added agarose (1% w/v agarose), autoclaved and cooled to 50°C. Bacteria grown to mid-logarithmic phase were harvested by centrifugation and washed with 10 mM SPB at pH 7.4. Bacteria were then added to 15 mls cooled underlay medium to reach a concentration of 2×10^7 colony-forming units (CFU)/mL. The inoculated medium was rapidly transferred into sterile Petri plates, allowed to solidify and dried. Wells (4.6 mm in diameter) were then made in the seeded plates. 10 µl volumes of cell-free supernatant from overnight nisin derivative producing cultures or resuspended purified peptides were then added to the wells and the plates incubated at 30°C (L. lactis) or 37°C (Gram positive strains) or RT (Gram negative strains) for 3 hours. Polymyxin B (Sigma Aldrich) was used at a concentration of 20 µg/ml. The plates were then overlaid with 15 mls of autoclaved double strength GM17 (L. lactis) or LB (Gram negatives) agarose (1% w/v agarose) overlay medium precooled to 50°C. The plates were then incubated overnight at the relevant temperature.
Polymyxin B (PMB) is a cyclic lipodecapaptide produced by bacteria of the genus Paenibacillus that acts primarily on the Gram negative cell wall, leading to rapid permeability changes in the cytoplasmic membrane and ultimately cell death. […] To that end, C. sakazakii DPC 6440 cells were treated with purified nisin A, S29G and S29A peptides alone (30 µM) or in combination with PMBN at a concentration of 20 µg/ml and determined the antimicrobial activity by agarose gel diffusion assay (Fig. 5). […] When used in combination with PMBN, a substantial synergistic effect was clearly evident (Fig. 5) but in this instance no significant difference in efficacy was observed between nisin A or either of the derivatives S29A or S29G.

Substance: S29G: bioengineered nisin A derivative with a serine to glycine change at position 29 (ITSISLCTPGCKTGALMGCNMKTATCHCGIHVSK; thioether (positions not given here); not fully specified (residues 2, 5, 33, bridges); UniProt P13068 24-57, looked up, variant S29G)
- Killing compared with nisin A (plate counts) (E. coli): greater activity than wildtype nisin A
- MIC (S. mitis UCC5000): 8.38 mg/L and 2.5 µM
- Zone Diameter (mm) (Lactococcus lactis HP; agarose (1%) GM17 assay, 10 µl cell-free supernatant of overnight producing culture in 4.6 mm wells, L. lactis HP, 30°C): 15.4±0.5 mm
- % difference (zone relative to wild type) (Lactococcus lactis HP; agarose assay of supernatants against L. lactis HP, wild type serine = 100): 101%
- Killing compared with nisin A (plate counts) (S. typhimurium UK-1): greater activity than wildtype nisin A
- MIC (B. cereus DPC 6089): 4.19 mg/L and 1.25 µM
- MIC (B. cereus DPC 6088): 4.19 mg/L and 1.25 µM
- Killing compared with nisin A (plate counts) (C. sakazakii DPC 6440 [1]): greater activity than wildtype nisin A
- MIC [2]: 50.28 mg/L and 15 µM
- MIC (E. coli 0157-H7): 25.14 mg/L and 7.5 µM
- Total area of inhibitory zone, peptide alone (C. sakazakii DPC 6440 [3]; purified peptide 30 µM alone): 48.2±0.7 mm^2
- Total area of inhibitory zone, peptide + PMBN (C. sakazakii DPC 6440 [3]; purified peptide 30 µM in combination with polymyxin B nonapeptide (PMBN) 20 µg/ml): 118.6±5.0 mm^2

Source: publication PMC3466204 (PLoS ONE, 2012)
